Activity calls are given as the source filed them. The calls are words filed in the database; no cut-off is given here.
Tests used:
[1] = system: A549; experiment: Cytotoxicity against human A549 cells assessed as reduction in cell viability at 10 uM incubated for 72 to 96 hrs by Celltiter-Glo assay; type: toxicity, cell-based; conditions: a549, 10 µM, time 72-96 hrs
[2] = Microsomal stability in rat liver microsomes assessed as half life at 1 uM incubated for 60 mins by HPLC-MS/MS analysis; type: ADME, Microsome
[3] = system: MCF7; experiment: Cytotoxicity against human MCF7 cells assessed as reduction in cell viability at 10 uM incubated for 72 to 96 hrs by Celltiter-Glo assay; type: toxicity, cell-based; conditions: mcf7, 10 µM, time 72-96 hrs
[4] = molecular target: T1, Egl nine homolog 1 (Homo sapiens, UniProt Q9GZT9); experiment: Inhibition of PHD2 (unknown origin) at 5 uM incubated for 15 mins by competitive fluorescence polarization assay relative to control
T1 sequence (Q9GZT9 2-426 limits assumed): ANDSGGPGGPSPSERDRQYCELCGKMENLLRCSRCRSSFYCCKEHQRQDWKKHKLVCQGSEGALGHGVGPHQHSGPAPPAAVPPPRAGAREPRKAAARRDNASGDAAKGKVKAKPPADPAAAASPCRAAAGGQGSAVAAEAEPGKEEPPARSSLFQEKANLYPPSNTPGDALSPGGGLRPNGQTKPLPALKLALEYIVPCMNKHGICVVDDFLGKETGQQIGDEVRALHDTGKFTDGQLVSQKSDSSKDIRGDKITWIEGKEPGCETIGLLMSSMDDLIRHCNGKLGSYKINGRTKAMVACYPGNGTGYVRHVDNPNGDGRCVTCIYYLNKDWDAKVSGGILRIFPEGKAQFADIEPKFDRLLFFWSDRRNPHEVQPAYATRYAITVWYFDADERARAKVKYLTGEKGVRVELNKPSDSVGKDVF

[5] = Volume of distribution at steady state in overnight fasted Sprague-Dawley rat at 5 mg/kg, iv measured upto 24 hrs; type: ADME, organism-based; conditions: in vivo, read-out: Vdss
[6] = system: CWR22R; experiment: Cytotoxicity against human 22Rv1 cells assessed as reduction in cell viability at 10 uM incubated for 72 to 96 hrs by Celltiter-Glo assay; type: toxicity, cell-based; conditions: time 72-96 hrs
[7] = system: Hepatocyte; experiment: Inhibition of lipid metabolism in mouse primary hepatocytes assessed as reduction in intracellular tryglyceride level at 10 uM incubated for 24 hrs; type: functional, cell-based
[8] = Cmax in overnight fasted Sprague-Dawley rat at 5 mg/kg, iv measured upto 24 hrs; type: ADME, organism-based; parameters: time < 24 hrs, dose 5 mg/kg, route iv; conditions: in vivo
[9] = Agonist activity at human TRbeta H435 mutant expressed in Escherichia coli BL21 (DE3) cells by alphascreen assay
[10] = system: BXPC-3; experiment: Cytotoxicity against human BXPC-3 cells assessed as reduction in cell viability at 10 uM incubated for 72 to 96 hrs by Celltiter-Glo assay; type: toxicity, cell-based; conditions: bxpc-3, 10 µM, time 72-96 hrs
[11] = system: HepG2; experiment: Inhibition of lipid metabolism in human HepG2 cells assessed as reduction in total lipid accumulation at 10 uM incubated for 24 hrs by oil red O staining based inverted microscopic analysis; type: functional, cell-based
[12] = system: HepG2; experiment: Inhibition of lipid metabolism in human HepG2 cells assessed as increase in p-ACC/ACC ratio at 10 uM incubated for 24 hrs by Western blot analysis; type: functional, cell-based
[13] = Half life in overnight fasted Sprague-Dawley rat at 5 mg/kg, iv measured upto 24 hrs; type: ADME, organism-based; conditions: in vivo
[14] = molecular target: T2, Thyroid hormone receptor alpha (Homo sapiens) (UniProt P10827); conditions: filed as agonist, dose 10.0 µM
T2 sequence (whole entry): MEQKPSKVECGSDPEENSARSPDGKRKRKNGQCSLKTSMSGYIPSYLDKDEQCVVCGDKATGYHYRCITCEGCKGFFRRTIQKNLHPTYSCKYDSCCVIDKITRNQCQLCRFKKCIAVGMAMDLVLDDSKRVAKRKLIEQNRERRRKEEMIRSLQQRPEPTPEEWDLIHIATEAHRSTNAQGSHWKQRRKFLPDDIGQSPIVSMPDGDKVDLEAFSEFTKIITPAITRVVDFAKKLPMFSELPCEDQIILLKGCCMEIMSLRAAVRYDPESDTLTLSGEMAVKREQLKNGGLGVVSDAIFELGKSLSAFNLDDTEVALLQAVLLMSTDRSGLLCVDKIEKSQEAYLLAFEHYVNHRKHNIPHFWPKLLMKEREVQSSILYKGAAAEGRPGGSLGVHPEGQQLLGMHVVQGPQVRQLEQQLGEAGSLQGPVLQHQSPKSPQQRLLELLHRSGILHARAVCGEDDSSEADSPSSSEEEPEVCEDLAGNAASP

[15] = Microsomal stability in human liver microsomes assessed as half life at 1 uM incubated for 60 mins by HPLC-MS/MS analysis; type: ADME, Microsome
[16] = system: Hepatocyte; experiment: Inhibition of lipid metabolism in mouse primary hepatocytes assessed as reduction in intracellular total cholesterol level at 10 uM incubated for 24 hrs; type: functional, cell-based
[17] = Microsomal stability in human liver microsomes assessed as intrinsic clearance at 1 uM incubated for 60 mins by HPLC-MS/MS analysis; type: ADME, Microsome; conditions: read-out: CLH
[18] = system: HepG2; experiment: Inhibition of lipid metabolism in human HepG2 assessed as reduction in intracellular tryglyceride level at 1 to 10 uM incubated for 24 hrs; type: functional, cell-based; conditions: dose 1-10 µM
[19] = AUC (0 to infinity) in overnight fasted Sprague-Dawley rat at 5 mg/kg, iv measured upto 24 hrs; type: ADME, organism-based; parameters: dose 5 mg/kg, time < 24 hrs, route iv; conditions: in vivo
[20] = system: HepG2; experiment: Cytotoxicity against human HepG2 cells assessed as reduction in cell viability at 10 uM incubated for 72 to 96 hrs by Celltiter-Glo assay; type: toxicity, cell-based; conditions: hepg2, 10 µM, time 72-96 hrs
[21] = system: MDA-MB-231; experiment: Cytotoxicity against human MDA-MB-231 cells assessed as reduction in cell viability at 10 uM incubated for 72 to 96 hrs by Celltiter-Glo assay; type: toxicity, cell-based; conditions: mda-mb-231, 10 µM, time 72-96 hrs
[22] = Half life in overnight fasted Sprague-Dawley rat at 5 mg/kg, po measured upto 24 hrs; type: ADME, organism-based; conditions: in vivo
[23] = molecular target: T3, hERG (Homo sapiens, UniProt Q12809); experiment: Inhibition of hERG expressed in HEK293 cells at 1 uM by patch-clamp assay relative to control; type: toxicity, cell-based; conditions: HEK293 cells expressing hERG
T3 sequence (Q12809 whole entry): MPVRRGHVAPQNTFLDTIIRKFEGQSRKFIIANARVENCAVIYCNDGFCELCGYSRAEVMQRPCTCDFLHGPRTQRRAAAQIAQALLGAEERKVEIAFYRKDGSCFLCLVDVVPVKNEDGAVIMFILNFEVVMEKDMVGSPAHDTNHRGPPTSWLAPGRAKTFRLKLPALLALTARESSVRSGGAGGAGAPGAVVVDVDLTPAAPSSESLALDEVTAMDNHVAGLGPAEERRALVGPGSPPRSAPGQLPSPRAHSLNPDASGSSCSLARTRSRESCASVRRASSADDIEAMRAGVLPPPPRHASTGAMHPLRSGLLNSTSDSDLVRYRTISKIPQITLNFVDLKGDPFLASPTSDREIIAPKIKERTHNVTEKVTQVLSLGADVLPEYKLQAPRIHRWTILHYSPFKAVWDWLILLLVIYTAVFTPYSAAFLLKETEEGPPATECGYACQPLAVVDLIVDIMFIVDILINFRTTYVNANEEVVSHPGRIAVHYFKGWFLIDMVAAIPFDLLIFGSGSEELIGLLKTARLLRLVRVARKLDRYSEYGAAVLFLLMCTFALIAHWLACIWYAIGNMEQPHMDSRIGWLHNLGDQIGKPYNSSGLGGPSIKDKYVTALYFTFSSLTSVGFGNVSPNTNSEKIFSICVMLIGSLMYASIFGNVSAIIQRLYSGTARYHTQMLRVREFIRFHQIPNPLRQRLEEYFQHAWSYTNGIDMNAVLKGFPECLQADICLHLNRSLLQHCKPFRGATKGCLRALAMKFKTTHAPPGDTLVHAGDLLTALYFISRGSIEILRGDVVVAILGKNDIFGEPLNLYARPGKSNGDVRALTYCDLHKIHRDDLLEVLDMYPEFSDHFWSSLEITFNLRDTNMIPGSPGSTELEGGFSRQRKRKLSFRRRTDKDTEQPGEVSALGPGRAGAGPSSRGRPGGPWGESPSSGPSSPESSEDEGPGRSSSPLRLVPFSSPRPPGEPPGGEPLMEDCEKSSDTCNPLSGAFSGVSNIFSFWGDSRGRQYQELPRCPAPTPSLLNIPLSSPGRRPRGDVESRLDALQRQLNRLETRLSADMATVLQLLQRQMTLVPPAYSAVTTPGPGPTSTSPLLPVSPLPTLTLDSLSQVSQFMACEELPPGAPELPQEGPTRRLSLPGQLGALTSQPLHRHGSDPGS

[24] = system: HepG2; experiment: Induction of mitochondrial basal respiration in human HepG2 cells assessed as increase in oxygen consumption rate at 10 uM measured after 24 hrs by Seahorse XFe96 flux analyzer; type: functional, cell-based
[25] = molecular target: T1, Egl nine homolog 1; experiment: Binding affinity to PHD2 (unknown origin) assessed as change in melting temperature at 10 uM in presence of ZnSO4 by thermal shift assay
[26] = molecular target: CYP2B6 (Homo sapiens, UniProt P20813); experiment: Inhibition of CYP2B6 in human liver microsomes at 10 uM incubated for 10 mins by LC-MS/MS analysis relative to control; type: ADME, Microsome
Sequence of CYP2B6 (P20813 whole entry): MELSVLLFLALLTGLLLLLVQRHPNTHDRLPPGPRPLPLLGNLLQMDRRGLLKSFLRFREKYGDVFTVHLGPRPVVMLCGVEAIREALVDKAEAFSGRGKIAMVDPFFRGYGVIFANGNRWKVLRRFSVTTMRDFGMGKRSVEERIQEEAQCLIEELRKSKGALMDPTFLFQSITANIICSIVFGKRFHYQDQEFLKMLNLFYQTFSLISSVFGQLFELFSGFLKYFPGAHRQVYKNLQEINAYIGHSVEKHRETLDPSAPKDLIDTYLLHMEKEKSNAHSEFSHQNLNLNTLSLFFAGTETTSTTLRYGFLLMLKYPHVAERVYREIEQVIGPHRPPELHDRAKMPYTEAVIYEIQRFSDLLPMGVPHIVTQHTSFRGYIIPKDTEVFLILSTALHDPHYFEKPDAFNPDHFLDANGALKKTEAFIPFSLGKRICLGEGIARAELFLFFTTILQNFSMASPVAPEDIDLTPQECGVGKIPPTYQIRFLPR

[27] = molecular target: T3, hERG; experiment: Inhibition of hERG expressed in HEK293 cells at 10 uM by patch-clamp assay relative to control; type: toxicity, cell-based; conditions: HEK293 cells expressing hERG
[28] = system: HepG2; experiment: Inhibition of lipid metabolism in human HepG2 assessed as reduction in intracellular total cholesterol level at 1 to 10 uM incubated for 24 hrs; type: functional, cell-based; conditions: dose 1-10 µM
[29] = molecular target: CYP2C8 (Homo sapiens, UniProt P10632); experiment: Inhibition of CYP2C8 in human liver microsomes at 10 uM incubated for 20 mins by LC-MS/MS analysis relative to control; type: ADME, Microsome
Sequence of CYP2C8 (P10632 whole entry): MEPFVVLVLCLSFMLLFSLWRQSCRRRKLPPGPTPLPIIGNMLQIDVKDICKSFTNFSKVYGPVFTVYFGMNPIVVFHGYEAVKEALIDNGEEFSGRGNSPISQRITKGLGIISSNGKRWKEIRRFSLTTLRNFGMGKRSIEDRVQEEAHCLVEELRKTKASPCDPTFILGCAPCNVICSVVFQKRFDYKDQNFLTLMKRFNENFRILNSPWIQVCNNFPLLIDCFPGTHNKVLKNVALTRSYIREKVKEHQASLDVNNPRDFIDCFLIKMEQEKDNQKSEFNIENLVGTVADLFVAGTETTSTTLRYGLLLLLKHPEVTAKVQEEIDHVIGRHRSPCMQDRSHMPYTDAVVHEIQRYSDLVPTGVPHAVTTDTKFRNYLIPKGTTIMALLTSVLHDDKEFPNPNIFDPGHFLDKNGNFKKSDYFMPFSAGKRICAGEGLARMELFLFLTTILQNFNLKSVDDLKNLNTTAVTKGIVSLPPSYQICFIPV

[30] = system: HepG2; experiment: Induction of mitochondrial uncoupled respiration in human HepG2 cells assessed as increase in oxygen consumption rate at 10 uM measured after 24 hrs by Seahorse XFe96 flux analyzer; type: functional, cell-based
[31] = Clearance in overnight fasted Sprague-Dawley rat at 5 mg/kg, iv measured upto 24 hrs; type: ADME, organism-based; conditions: in vivo
[32] = Cmax in overnight fasted Sprague-Dawley rat at 5 mg/kg, po measured upto 24 hrs; type: ADME, organism-based; parameters: time < 24 hrs, dose 5 mg/kg, route po; conditions: in vivo
[33] = molecular target: CYP2D6 (Homo sapiens, UniProt P10635); experiment: Inhibition of CYP2D6 in human liver microsomes at 10 uM incubated for 45 mins by LC-MS/MS analysis relative to control; type: ADME, Microsome
Sequence of CYP2D6 (P10635 whole entry): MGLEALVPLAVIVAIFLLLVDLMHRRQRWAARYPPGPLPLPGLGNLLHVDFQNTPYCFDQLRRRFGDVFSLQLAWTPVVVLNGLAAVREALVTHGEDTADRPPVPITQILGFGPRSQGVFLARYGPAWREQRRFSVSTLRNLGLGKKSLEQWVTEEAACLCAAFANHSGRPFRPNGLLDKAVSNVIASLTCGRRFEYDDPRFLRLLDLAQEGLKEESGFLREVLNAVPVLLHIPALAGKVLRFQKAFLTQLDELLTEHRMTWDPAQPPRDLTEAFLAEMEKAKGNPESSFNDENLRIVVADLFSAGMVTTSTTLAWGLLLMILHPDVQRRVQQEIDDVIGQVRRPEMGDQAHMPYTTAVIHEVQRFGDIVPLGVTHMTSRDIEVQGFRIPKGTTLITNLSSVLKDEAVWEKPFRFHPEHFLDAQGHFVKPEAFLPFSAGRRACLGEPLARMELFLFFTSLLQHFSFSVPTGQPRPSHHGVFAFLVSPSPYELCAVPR

half-life at 1 µM [2]: > 2 h | inhibition [4]: 4.8% | Vd [5]: 0.72 L/kg | Cmax [8]: 8450 ng/mL | EC50 [9]: 1340 nM | half-life [13]: 1.8 h | ΔTm [14]: 0.1 °C | half-life at 1 µM [15]: > 2 h | CLint scaled at 1 µM [17]: < 14.5 mL/min/kg | AUC(0-inf) [19]: 10900 ng·h/mL | half-life [22]: 2.58 h | ΔTm [25]: 1.5 °C | inhibition at 10 min, 10 µM [26]: 15.2% | inhibition at 20 min, 10 µM [29]: 26.3% | clearance [31]: 7.83 mL/min/kg | Cmax [32]: 1450 ng/mL | inhibition at 0.75 h, 10 µM [33]: -11.3%
Structure (SMILES): COc1cc(F)cc(C(=O)c2cc(C)c(Oc3ccc4c(O)c(C(=O)NCC(=O)O)nc(OC)c4c3)c(C)c2)c1
Activity [1]: Non-Toxic | Activity [3]: Non-Toxic | Activity [6]: Non-Toxic | inhibition [7]: Active | Activity [10]: Non-Toxic | inhibition [11]: Active | inhibition [12]: Active | inhibition [16]: Active | inhibition [18]: Active | Activity [20]: Non-Toxic | Activity [21]: Non-Toxic | inhibition at 1 µM [23]: 4.19% | Activity [24]: Active | inhibition at 10 µM [27]: 9.13% | inhibition [28]: Active | Activity [30]: Active

Source: ChEMBL document CHEMBL5154903 (J Med Chem, 2022)
